Experiment: Solvolytic stability of compound was measured relative to p-hydroxyphenethyl bromide
Format: functional, Rattus norvegicus

SMILES	1/krel
C[C@]12CC[C@@H]3c4ccc(O)cc4CC[C@H]3[C@@H]1C[C@@H](Br)[C@@H]2O	1276
C[C@]12CC[C@@H]3c4ccc(O)cc4CC[C@H]3[C@@H]1C[C@@H](CBr)C2O (some centres not stated)	451
